Data taken from patent EP3263567A1, “CARBOXAMIDE-SUBSTITUTED PYRAZOLES AND TRI(HETERO)ARYL-PYRAZOLES FOR USE IN METHODS OF TREATING AND / OR PREVENTING CARDIOVASCULAR DISEASES AND / OR COMORBIDITIES THEREOF” (AiCuris Anti-infective Cures GmbH, priority 2016, dated 2018).
Converted amounts (≈) assume the structure as drawn. “Also recorded” adds a separate entry of the source.

Experiments:
[1] = Solubility of compound A; assay type: physicochemical; conditions: for solubility: aqueous media
[2] = tested on: Beagle dogs; experiment: 4-week beagle dog experiment, non-invasive telemetry (ECG, heart rate, blood pressure); assay type: in vivo
Description: [drawing 93] i.e. 4-[5-[3-Chloro-5-(trifluoromethoxy)phenyl]-1-(pyridin-3-yl)-1H-pyrazol-3-yl]-5,6-dihydro-7H-pyrrolo[3,4-d]pyrimidin-7-one, was administered in a 4-week beagle dog experiment with integrated non-invasive telemetric electrocardiography (ECG) measurements for determining its cardiovascular effects; specifically its effects on the heart rate.
32 Beagle dogs (16 males and 16 females) with parameters in the normal range were tested for cardiovascular effects of Compound A administration and divided into the study groups indicated below.
The test compound A-formulation of the appropriate concentration was administered by oral administration at a constant administration volume/kg b.w.
• Groups 1 and 4: Twice daily at an 8-hour interval for 28 consecutive days. • Groups 2 to 3: Once daily for 28 consecutive days.
Telemetry parameters were monitored at the following times: • Predose and in test week 4: All 32 animals included in this study. • At the end of the recovery period in test week 8: All 8 recovery animals.
Parameters were monitored telemetrically with the EMKA Technologies System continuously starting approximately 24 hours prior to the first treatment (baseline; pre-dose values) and for approximately 24 hours in test week 4 and at the end of the recovery period in test week 8. The dogs were habituated and trained for wearing the jackets equipped with the telemetry transmitter and air-filled cuff placed on their tail.
The following telemetry parameters were determined: • Peripheral arterial blood pressure in the tail (blood flow occlusion using an air filled cuff) • Heart rate • Electrocardiography (QRS, QT, PQ, RR) • Respiration (respiratory inductive plethysmography; belts were placed around the thorax and abdomen) • Skin temperature • Physical activity.
The report includes the data recorded at the following intervals: • Pre-dose: Every 4 hours after start of recording (7 (Baseline; approx. 24 hours) tracings per animal) • Test week 4: Approx. 0, 1, 2, 6, and 24 hours after (Start of treatment to 24 hours post the 1 st administration of the day treatment relating to first dosing of the day) • At the end of the recovery period in Every 4 hours after start of recording (7 test week 8: tracings per animal)
The electrocardiogram was visually assessed for any abnormalities of the electrical complexes (i.e. arrhythmias, interval prolongations). In addition, the following parameters were evaluated:
Furthermore, the QTc-values were calculated according to the following Bazett-formula: QTc = (QT [sec])/(sqrt((R−R distance[sec]))) [formula]

[3] = 10-day dose-range-finding study in dogs; assay type: in vivo
Description: For the dog study, single dose data are available at 3, 30 and 100 mg/kg and repeated dose data (10 days of treatment) are available at 30, 100 and 2 x 50 mg/kg. At a single dose of 30 mg/kg, no further increase in exposure or Cmax is apparent. In the 10-day DRF study (LPT Study No. 31586) it was investigated whether after multiple dosing any accumulation would be apparent and therefore dose levels of 30 and 100 mg/kg were selected in this study. In addition, the highest daily dose (i.e. 100 mg/kg) was also administered as 50 mg/kg twice daily (8-h interval) to investigate possible beneficial effects of BID dosing on overall exposure.

[4] = in vivo; conditions: both, Beagle, dog, po, 30 mg/kg
Description: A single oral dose of 30 or 100 mg/kg was applied to dogs. Pharmacokinetic parameters were assessed and compared.
Male and female Beagle dogs.
Plasma concentrations were obtained by LC-MS/MS measurements.

[5] = 3, 10 or 2 x 50 mg/kg b.w./day oral, test week 4

O=C1NCc2c1ncnc2-c1cc(-c2cc(Cl)cc(OC(F)(F)F)c2)n(-c2cccnc2)n1 [Compound A, 4-[5-[3-Chloro-5-(trifluoromethoxy)phenyl]-1-(pyridin-3-yl)-1H-pyrazol-3-yl]-5,6-dihydro-7H-pyrrolo[3,4-d]pyrimidin-7-one]
solubility ([1]; pH 7.4, aqueous buffer): 50 to 70 µg/mL (≈ 106 to 148 µM)
solubility ([1]; simulated gastric fluid, pH 2.0): 400 µg/mL (≈ 846 µM)
Solubility (test item description) ([1]; description of the batch used in Example 3): soluble in water
solubility in commonly used pharmaceutical excipients ([1]; oils, cosolvents, surfactants): very low solubility
start of telemetric changes after last administration ([2]; 1st evaluated telemetric time-point, test week 4): ≤ 5 min
effect on QTc interval ([2]; 3, 10 or 2 x 50 mg/kg b.w./day oral, 4 weeks): no adverse effects on QTc-interval; also recorded: no effect on QTc; also recorded: No influence
prolonged QT interval [2, 5]: ≤ 50%
prolonged RR interval [2, 5]: ≤ 140%
decreased heart rate ([2]; 3, 10 or 2 x 50 mg/kg b.w./day oral, test week 4, compared to control group): ≤ 50%
severe bradycardia or atrial fibrillation ([2]; beagle dog study): no signs of too much slowing of the heart rate (severe bradycardia) nor atrial fibrillation
telemetric changes lasting until, after administration ([2]; end of telemetric measurement, test week 4): 24 h
influence on systolic and diastolic blood pressures ([2]; oral, 4 weeks): No influence
recovery of telemetric changes after 4-week treatment-free recovery period ([2]; week 8, high dose group 2 x 50 mg/kg b.w./day): full recovery; also recorded: completely subsided
exposure on split dosing ([3]; 100 mg/kg as 2 x 50 mg/kg 8 hours apart): small increase in exposure
test item related findings ([3]; 30, 100 and 2 x 50 mg/kg, 10 days): No clear and consistent test item related findings
exposure on dose increase ([3]; 30 to 100 mg/kg, 10 days): did not reveal a further increase in exposure
AUC(0-inf) [4]: 297 µg·h/mL
